The source of these data is patent publication US20080191170A1, “Use of Ionic Liquids” (CAMBRIDGE UNIVERSITY TECHNICAL SERVICES LIMITED, priority 2004, published 2008).

The term solubility denotes the dissolved amount per volume that the medium holds.

Each structure is given as a SMILES string. Read-outs that look alike come from different tables or passages of the source.

The target of data set [1] is T1, morphine dehydrogenase (MDH) (Pseudomonas putida, UniProt Q02198).
T1 sequence (Q02198 1-296): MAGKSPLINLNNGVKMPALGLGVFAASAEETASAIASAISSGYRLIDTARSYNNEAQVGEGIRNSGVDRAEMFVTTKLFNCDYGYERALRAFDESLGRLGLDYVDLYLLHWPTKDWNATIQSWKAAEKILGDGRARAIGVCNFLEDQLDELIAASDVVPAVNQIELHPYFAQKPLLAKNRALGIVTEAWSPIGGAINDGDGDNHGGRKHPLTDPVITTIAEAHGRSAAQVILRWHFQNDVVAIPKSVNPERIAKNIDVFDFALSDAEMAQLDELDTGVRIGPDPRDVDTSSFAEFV
The conditions noted are these: ionic liquid as medium, cited from earlier work; for Net % codeinone: <100 ppm water, glucose dehydrogenase recycling NADP+.

Data set [2] is described as follows: Refractive index of ionic liquid (Mettler Toledo Refracto 30PX, sodium D-line 589.3 nm). In kind it is physicochemical. The note with it: sodium D-line at 589.3 nm. The procedure: (§1) Refractive index was measured using a Mettler Toledo Refracto™ 30PX, using a single wavelength light source (the sodium D-line at 589.3 nm). Viscosity was measured using an AND Vibro™ SV10 instrument, which measures viscosity by controlling the amplitude of vibrations of sensor plates submerged in a liquid, detecting changes in the electric current needed to drive the plates.

The nature of data set [3]: Viscosity of ionic liquid (AND Vibro SV10). Type of data set: physicochemical. The note with it: at 25° C. The procedure:
as §1

Data set [4] can be described thus: Solubility of penicillin G (sodium salt) in ionic liquid solvents. Type of data set: physicochemical.
The nature of data set [5]: Water miscibility of silyl-protected ionic liquid. In kind it is physicochemical. The procedure: Dry 3-HOPMIm PF6(2.86 g, 10 mmol) was placed in a round-bottomed flask and dissolved in 50 ml dry THF. Dry trimethylsilyl (TMS) chloride (1.05 g) was added in dry THF solution, dropwise over a period of 30 minutes, with external cooling and stirring, under an atmosphere of dry argon. Stirring was continued for 12 hours.
At the completion of the reaction (TLC), the solvent was removed in vacuo to yield the silyl-protected ionic liquid (3.52 g, 98%), 3-TMSOPMIm PF6.

Regarding `C[n+]1ccn(CCCO)c1.[Cl-]` [HOPMIm Cl, hydroxypropyl methyl imidazolium chloride], the Net % codeinone in data set [1] (1 hour) is on record as 0%; in data set [1] (4 hours) it was 0%; in data set [1] (24 hours), “Small”. For the same compound, the “MDH activity in the ionic liquid (in words)” value (shortened to “MDH activity”) in data set [1] is listed as “very little activity”.
As for `CCCCn1cc[n+](C)c1.O=C([O-])CO` [BMIm glycolate], the values for the Net % codeinone in data set [1] (1 hour), in data set [1] (4 hours) and in data set [1] (24 hours) were 0%, 5% and 12%, respectively. Moreover, the “MDH activity” value in data set [1] is “greatly improved”.
`CC(=O)O.CCCCN(CCO)CCO` [Pure n-butyl diethanolammonium acetate, n-butyl diethanolammonium acetate] showed a Refractive index in data set [2] of 1.464. Also, in data set [3], the Viscosity is approximately 285 mPa · s.
In the case of `C[n+]1ccn(CCCO)c1.F[P-](F)(F)(F)(F)F` [HOPMIm PF6], the Net % codeinone in data set [1] (1 hour) is listed as 2%; in data set [1] (4 hours), 9%; in data set [1] (24 hours), 20%. The “MDH activity” value in data set [1] is listed as “high level”.
`CC1(C)S[C@@H]2[C@H](NC(=O)Cc3ccccc3)C(=O)N2[C@H]1C(=O)[O-].[Na+]` [penicillin G (sodium salt)]: the solubility is approximately 50 mg/mL in data set [4] (in dimethyl ethanolammonium crotonate/ethanol (25/75 v/v)), 76 mg/mL in data set [4] (in dimethyl ethanolammonium trifluoroacetate/ethanol (25/75 v/v)), approximately 20 mg/mL in data set [4] (in pure dimethyl ethanolammonium crotonate) and more than 275 mg/mL in data set [4] (in pure dimethyl ethanolammonium trifluoroacetate).
For the compound `CCCCn1cc[n+](C)c1.F[P-](F)(F)(F)(F)F` [BMIm PF6], the values for the Net % codeinone in data set [1] (1 hour), in data set [1] (4 hours) and in data set [1] (24 hours) were 0%, 0% and 2%, respectively. In addition, the “MDH activity” value in data set [1] is reported as “extremely low”.
For the compound `C[n+]1ccn(CCCO)c1.O=C([O-])CO` [HOPMIm glycolate], the Net % codeinone entry is “small” in data set [1] (1 hour), 5% in data set [1] (4 hours) and 16% in data set [1] (24 hours). For the same compound, the “MDH activity” value in data set [1] is “moderate level of activity”.
In the case of `Cn1cc[n+](CCCO[Si](C)(C)C)c1.F[P-](F)(F)(F)(F)F` [3-TMSOPMIm PF6], the miscibility with water entry in data set [5] is “effectively immiscible with water”.
For the compound `CCCCN(CCO)CCO.O=C(O)C(F)(F)F` [n-butyl diethanolammonium trifluoroacetate], the Refractive index in data set [2] was 1.434. In data set [3], this compound gave a Viscosity of 440 mPa · s.
